Test results: patent US6156724A, “Uses of didemnins as immunomodulating agents” (priority 1998, dated 2000)
pIC50: −log10 of the molar value. Where two headings read alike, the source gives them in different places. Numbered stars: 1 amine (or outer) side, 2 acyl side, 3 side chain; on linkers, the order of the positions; unused ones are H or OH. Bridge positions count the residues as written; N and C are the ends. Square brackets hold non-standard residues; d marks the D form. Peptide text beside a SMILES is read from it. * marks the point of attachment. X1 = CC[C@H](C)[C@@H](N[*:1])[C@@H](O)CC(=O)O[C@H](C(=O)[C@H](C)C(=O)[*:2])C(C)C; NMeY = CN[C@@H](Cc1ccc(O)cc1)C(=O)O; dNMeL = CN[C@H](CC(C)C)C(=O)O; pGlu = O=C1CC[C@@H](C(=O)O)N1; Isobutyryl = CC(C)C(=O)*; Pyruvoyl = CC(=O)C(=O)*; Lac = C[C@H](O)C(=O)O; Propionyl = CCC(=O)*

Columns and labels:
[1] = system: Balb/c splenocytes (resting lymphocytes); test: Lymphocyte viability (LcV) assay; assay type: cell-based, murine; settings: unstimulated Balb/c splenocytes, MTT
Experimental: Forty two (42) didemnin compounds (see Table 1) were evaluated for cytotoxicity to one of the lymphocyte populations in the MLR (i.e., Balb/c splenocytes). The purpose of the lymphocyte viability assay (LcV) is to measure metabolic activity in lymphocytes after they have been exposed to the compounds for the duration of an under conditions equivalent to the MLR. The inverse of the data yields cytotoxicity information about the compounds on murine lymphocytes. The rationale of using resting cells, in this case unstimulated lymphocytes, to measure cytotoxicity has a strategic importance. In the MLR the heterogenous cell populations are predominantly resting cells when the assay begins.
Test compounds were prepared in two sets as described above. Splenocytes were prepared as described previously from one murine strain (Balb/c), and a volume of 200 μL of the cell suspension was added to one set of test compounds and control wells.
Assay plates were incubated as in the MLR and then pulsed overnight 75 μL per well MTT-thiazolyl blue solution (150 μg). The plates were decanted and the resulting insoluble formazan crystals were dissolved in 200 μL of isopropyl alcohol. Absorbance at 570 nm was measured.
The LcV data were calculated as a percentage of basal metabolic activity, or percent viability, relative to BALB/c control, and an LC50 value was interpolated for each test compound.

[2] = system: concanavalin A-induced lymphoblasts (Con A splenocytes); test: Lymphoblast viability (LbV) assay; settings: Con A-stimulated splenocytes (lymphoblasts), MTT
[3] = system: murine splenocytes (Balb/c and C57B1/6); test: Two-way mixed lymphocyte reaction (MLR) assay;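 further: proliferation read as tritiated thymidine incorporation into newly made DNA after an overnight pulse, expressed as percent of control activity, IC50 interpolated per compound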
[4] = Balb/c + C57B1/6 splenocytes, 96 h, [3H]thymidine
[5] = read-out: two-way mixed lymphocyte reaction (MLR) suppression MLR, IC50, Balb/c + C57B1/6 splenocytes, 96 h, [3H]thymidine

Compound | cytoxicity to lymphocytes LcV, LC50 [1] [nM] | cytoxicity to lymphocytes LcV, LC50 ([1]; highest concentration 10 μg/mL) [µg/mL] | cytotoxicity to lymphocytes LbV, LC50 [2] [nM] | two-way mixed lymphocyte reaction (MLR) suppression MLR, IC50 [3, 4] [ng/mL] | pIC50 [3, 5] | pIC50 ([3]; read-out: MLR IC50)
CC[C@H](C)[C@H]1NC(=O)[C@@H](NC(=O)[C@@H](CC(C)C)N(C)C(=O)[C@@H]2CCCN2C(=O)C(C)=O)[C@@H](C)OC(=O)[C@H](Cc2ccc(OC)cc2)N(C)C(=O)[C@@H]2CCCN2C(=O)[C@H](CC(C)C)NC(=O)[C@@H](C)C(=O)[C@H](C(C)C)OC(=O)C[C@@H]1O [Compound 30, dehydrodidemnin B] (Pyruvoyl-P[dNMeL]T[X1]LP[NMeY](Me); ester 3-C) | 2600 | 2.90 | 0.079 | 0.43 | 9.42 | –
CC[C@H](C)[C@H]1NC(=O)[C@@H](NC(=O)[C@@H](CC(C)C)N(C)C(=O)[C@@H]2CCCN2C(C)=O)[C@@H](C)OC(=O)[C@H](Cc2ccc(OC)cc2)N(C)C(=O)[C@@H]2CCCN2C(=O)[C@H](CC(C)C)NC(=O)[C@@H](C)C(=O)[C@H](C(C)C)OC(=O)C[C@@H]1O [Compound 31, [Acetyl^9]Didemnin B] (Ac-P[dNMeL]T[X1]LP[NMeY](Me); ester 3-C) | 2800 | 3.10 | 0.16 | 0.22 | 9.68 | –
CCC(=O)N1CCC[C@H]1C(=O)N(C)[C@H](CC(C)C)C(=O)N[C@@H]1C(=O)N[C@H]([C@@H](C)CC)[C@@H](O)CC(=O)O[C@@H](C(C)C)C(=O)[C@H](C)C(=O)N[C@@H](CC(C)C)C(=O)N2CCC[C@H]2C(=O)N(C)[C@@H](Cc2ccc(OC)cc2)C(=O)O[C@@H]1C [Compound 32, [Propionyl^9]Didemnin B] (Propionyl-P[dNMeL]T[X1]LP[NMeY](Me); ester 3-C) | 1980 | 2.20 | 0.184 | 0.26 | 9.64 | –
CC[C@H](C)[C@H]1NC(=O)[C@@H](NC(=O)[C@@H](CC(C)C)N(C)C(=O)[C@@H]2CCCN2C(=O)C(C)C)[C@@H](C)OC(=O)[C@H](Cc2ccc(OC)cc2)N(C)C(=O)[C@@H]2CCCN2C(=O)[C@H](CC(C)C)NC(=O)[C@@H](C)C(=O)[C@H](C(C)C)OC(=O)C[C@@H]1O [Compound 33, [Isobutyryl^9]Didemnin B] (Isobutyryl-P[dNMeL]T[X1]LP[NMeY](Me); ester 3-C) | 2240 | 2.40 | 0.204 | 0.041 | 10.43 | –
CC[C@H](C)[C@H]1NC(=O)[C@@H](NC(=O)[C@@H](CC(C)C)N(C)C(=O)[C@H]2CCCN2C(=O)C(C)C)[C@@H](C)OC(=O)[C@H](Cc2ccc(OC)cc2)N(C)C(=O)[C@@H]2CCCN2C(=O)[C@H](CC(C)C)NC(=O)[C@@H](C)C(=O)[C@H](C(C)C)OC(=O)C[C@@H]1O [Compound 34, [Isobutyryl^9, D-Pro^8] Didemnin B] (Isobutyryl-[dP][dNMeL]T[X1]LP[NMeY](Me); ester 3-C) | 5600 | 6.20 | 4.81 | 0.67 | 9.22 | –
CC[C@H](C)[C@H]1NC(=O)[C@@H](NC(=O)[C@@H](CC(C)C)N(C)C(=O)[C@H](C)NC(=O)[C@H](C)O)[C@@H](C)OC(=O)[C@H](Cc2ccc(OC)cc2)N(C)C(=O)[C@@H]2CCCN2C(=O)[C@H](CC(C)C)NC(=O)[C@@H](C)C(=O)[C@H](C(C)C)OC(=O)C[C@@H]1O [Compound 35, [L-Ala^8]Didemnin B] | > 9200 | > 10 | 0.717 | 0.33 | 9.51 | –
CC[C@H](C)[C@H]1NC(=O)[C@@H](NC(=O)[C@@H](CC(C)C)N(C)C(=O)[C@@H]2CCCN2C(=O)[C@H](C)OC(=O)[C@H](CCC(N)=O)NC(=O)[C@H](CCC(N)=O)NC(=O)[C@@H]2CCC(=O)N2)[C@@H](C)OC(=O)[C@H](Cc2ccc(OC)cc2)N(C)C(=O)[C@@H]2CCCN2C(=O)[C@H](CC(C)C)NC(=O)[C@@H](C)C(=O)[C@H](C(C)C)OC(=O)C[C@@H]1O [Compound 39, Didemnin E] ([pGlu]QQ[Lac]P[dNMeL]T[X1]LP[NMeY](Me); ester 7-C) | > 6770 | > 10 | 1.4 | 0.012 | 11.08 | 11.08
CC[C@H](C)[C@H]1NC(=O)[C@@H](NC(=O)[C@@H](CC(C)C)N(C)C(=O)[C@@H]2CCCN2C(=O)[C@H](C)OC(=O)[C@H](CCC(N)=O)NC(=O)[C@H](CCC(N)=O)NC(=O)[C@H](CCC(N)=O)NC(=O)[C@@H]2CCC(=O)N2)[C@@H](C)OC(=O)[C@H](Cc2ccc(OC)cc2)N(C)C(=O)[C@@H]2CCCN2C(=O)[C@H](CC(C)C)NC(=O)[C@@H](C)C(=O)[C@H](C(C)C)OC(=O)C[C@@H]1O [Compound 40, Didemnin D] ([pGlu]QQQ[Lac]P[dNMeL]T[X1]LP[NMeY](Me); ester 8-C) | > 6220 | > 10 | 0.85 | 0.20 | 9.92 | –
Didemnin X [Compound 41] | 6010 | 10.0 | 3.1 | 0.83 | 9.30 | –
Didemnin Y [Compound 42] | > 5570 | > 10 | 1.1 | 0.89 | 9.30 | –
[Anhydro1st^2 ][Phth-Ala^9 ]DB [Compound 9] | > 8200 | > 10 | 1.9 | 0.30 | 9.60 | –
[Phth-Ala^9 ]DB [Compound 8] | > 8100 | > 10 | 0.81 | 0.49 | 9.41 | –
